{"source": "patent US11939312B2", "about": "“Enantiomeric entactogen compositions and their use” (Arcadia Medicine, Inc., priority 2021, dated 2024)", "key": {"[1]": {"details": "cited from earlier work"}, "[2]": {"details": "p.o. in rat (single housing for SR(±)MDMA); cited from earlier work"}, "[3]": {"details": "rodent models, doses far above allometrically-scaled clinical doses (Curry 2018); cited from earlier work"}, "[4]": {"test": "Maximum recommended starting dose (MRSD)", "details": "expected value"}, "[5]": {"test": "Subjective report of R-MDMA HCL (Example 11)", "details": "oral 250 (±) 10 mg", "experimental": "Purpose: To determine the physiological and subjective effects of the hydrochloride salt of R-MDMA (oral administration, 250 (±) 10 mg), supplemented with acetyl-L-carnitine (ALCAR), alpha lipoic acid (ALA), ascorbate to reduce or prevent neurotoxicity."}, "[6]": {"test": "Calculated human equivalent dose (HED) of the NOAEL", "details": "for Human Equivalent Dose (HED): NOAEL (human), total dose / Human Equivalent Dose (HED): neurotoxicology NOAEL (human), total dose: assuming a 60 kg human; for NOAEL: human"}, "[7]": {"details": "repeated administration, 50 mg/kg bw, mice (Curry 2018); cited from earlier work"}, "[8]": {"details": "cited from earlier work", "remark": "listed apart in the source"}, "[9]": {"details": "rat, p.o., cited from earlier work"}, "[10]": {"details": "doses of 100-125 mg; cited from earlier work"}, "[11]": {"details": "dog, female and male, p.o.; cited from earlier work"}, "[12]": {"details": "brain imaging studies, 100 mg, healthy volunteers"}}, "note": "Where two headings read alike, the source gives them in different places.", "data": [{"smiles": "CN[C@H](C)Cc1ccc2c(c1)OCO2", "note": "[R-MDMA, (R)-1-(1,3-Benzodioxol-5-yl)-N-methyl-propan-2-amine]", "values": [{"measurement": "AUC in comparison to S-MDMA", "setting": "[1]; Fallon 1999, Fitzgerald 1990", "result": "increased AUC"}, {"measurement": "half-life in comparison to S-MDMA", "setting": "[1]; Fallon 1999, Fitzgerald 1990", "result": "longer half-life"}, {"measurement": "No adverse effect level (NOAEL)", "setting": "[2]", "result": "NOAEL: >200 mg/kg"}, {"measurement": "temperature fluctuations", "setting": "[3]", "result": "no significant temperature fluctuations"}, {"measurement": "Expected MSRD", "setting": "[4]", "result": ">300 mg:"}, {"measurement": "hyperthermia or hypothermia", "setting": "[5]", "result": "No noticeable hyperthermia or hypothermia"}, {"measurement": "jaw clenching", "setting": "[5]", "result": "No incidence of jaw clenching"}, {"measurement": "onset of noticeable effects", "setting": "[5]; Subject A", "result": "around 40 minutes"}, {"measurement": "time of peak of the experience", "setting": "[5]; Subject A", "result": "around two hours after ingestion"}, {"measurement": "blood pressure", "setting": "[5]; monitor of low precision, result inconclusive", "result": "increased for a short period"}, {"measurement": "heart rate", "setting": "[5]; short period, from 85 resting", "result": "115-125"}, {"measurement": "Human Equivalent Dose (HED): NOAEL (human), total dose", "setting": "[6]", "result": ">4100", "unit": "mg"}, {"measurement": "Human Equivalent Dose (HED): neurotoxicology NOAEL (human), total dose", "setting": "[6]", "result": 450, "unit": "mg*"}, {"measurement": "NOAEL", "setting": "[6]", "result": 7.4, "unit": "mg/kg"}, {"measurement": "evidence of neurotoxicity", "setting": "[7]", "result": "did not show evidence of neurotoxicity"}]}, {"smiles": "CN[C@@H](C)Cc1ccc2c(c1)OCO2", "note": "[S(+)MDMA, (S)-1-(1,3-Benzodioxol-5-yl)-N-methylpropan-2-amine]", "values": [{"measurement": "Expected MSRD", "setting": "[4]", "result": 150, "unit": "mg"}, {"measurement": "Human Equivalent Dose (HED): NOAEL (human), total dose", "setting": "[6]", "result": "<2080", "unit": "mg"}, {"measurement": "Human Equivalent Dose (HED): neurotoxicology NOAEL (human), total dose", "setting": "[6]", "result": 342.9, "unit": "mg*"}, {"measurement": "NOAEL", "setting": "[6]", "result": 6, "unit": "mg/kg"}]}, {"smiles": "CNC(C)Cc1ccc2c(c1)OCO2", "note": "(racemic) [racemic MDMA, 3,4-methylenedioxymethamphetamine]", "values": [{"measurement": "onset of subjective effects", "setting": "[8]; Harris 2002", "result": "approximately 45 mins"}, {"measurement": "time of peak subjective effects", "setting": "[8]; Harris 2002", "result": "1.5 to 2", "unit": "h"}, {"measurement": "time to decrease to baseline values", "setting": "[8]; Harris 2002", "result": "5 to 6", "unit": "h"}, {"measurement": "duration of subjective effects", "setting": "[8]; [12]", "result": "approximately 4.5 hours"}, {"measurement": "time of peak subjective effects", "setting": "[8]; [12]", "result": 1.67, "unit": "h"}, {"measurement": "duration of effects", "setting": "[8]; one dose", "result": "4 to 5", "unit": "h"}, {"measurement": "time of peak drug effects", "setting": "[8]; patients with PTSD (Mithoefer 2013)", "result": "2 to 5", "unit": "h"}, {"measurement": "onset of action", "setting": "[8]; patients with PTSD, after the initial dose (Mithoefer 2013)", "result": "45 to 75", "unit": "min"}, {"measurement": "duration of effects", "setting": "[8]; with the booster dose", "result": "5 to 6", "unit": "h"}, {"measurement": "Neurotoxicology NOAEL", "setting": "[9]; female", "result": 25, "unit": "mg/kg/week p.o1"}, {"measurement": "Neurotoxicology NOAEL", "setting": "[9]; male", "result": 20, "unit": "mg/kg/week p.o1."}, {"measurement": "time to peak plasma concentration", "setting": "[1]; doses 100-125 mg, humans", "result": "2 to 3", "unit": "h"}, {"measurement": "elimination half-life", "setting": "[1]; similar for doses 50-125 mg", "result": "7 to 9", "unit": "h"}, {"measurement": "No adverse effect level (NOAEL)", "setting": "[2]", "result": "NOAEL: 100 mg/kg"}, {"measurement": "increase in blood pressure (diastolic)", "setting": "[10]", "result": "14.4-25 mmg"}, {"measurement": "increase in heart rate", "setting": "[10]", "result": "26-30 bpm"}, {"measurement": "Human Equivalent Dose (HED): NOAEL (human), total dose", "setting": "[6]", "result": 2080, "unit": "mg"}, {"measurement": "Human Equivalent Dose (HED): neurotoxicology NOAEL (human), total dose", "setting": "[6]", "result": 342.9, "unit": "mg*"}, {"measurement": "Human Equivalent Dose (HED): NOAEL (human)", "setting": "[6]; calculated from NOAEL", "result": 34, "unit": "mg/kg →"}, {"measurement": "Human Equivalent Dose (HED): neurotoxicology NOAEL (human)", "setting": "[6]; calculated from neurotoxicology NOAEL", "result": "NOAEL (human): 6 mg/kg"}, {"measurement": "Neurotoxicology NOAEL", "setting": "[11]", "result": 4, "unit": "mg/kg/week p.o"}]}]}
